The compounds below were run against Cell division control protein 42 homolog (Homo sapiens) (UniProt P60953) (assay: inhibition of fluorescent GTP binding to Cdc42 – biochemical, multiplex bead flow cytometry, round 1, SAR follow-up (AID 588377)). Conditions: GST-Cdc42 wt beads;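 active = compounds whose fitted EC50 is 10 µM or lower and whose response changes by 30 percent or more; inactive = the rest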.
Sequence of Cell division control protein 42 homolog (Homo sapiens) (P60953 whole entry, looked up): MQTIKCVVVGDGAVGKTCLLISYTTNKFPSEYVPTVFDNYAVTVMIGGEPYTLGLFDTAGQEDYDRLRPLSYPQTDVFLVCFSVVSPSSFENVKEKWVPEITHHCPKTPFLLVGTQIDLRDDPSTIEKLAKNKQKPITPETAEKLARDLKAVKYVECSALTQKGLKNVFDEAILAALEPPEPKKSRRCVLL

EC50, active:
NS(=O)(=O)c1ccc(N2N=C(c3ccccc3)CC2c2ccccc2)cc1 (stereo not drawn) 4.13 µM
O=C(C#Cc1ccccc1)c1cccc([N+](=O)[O-])c1 3.94 µM
COc1ccc(C2CC(c3ccccc3)=NN2c2ccc(S(N)(=O)=O)cc2)cc1 (stereo not drawn) 0.823 µM
